# From patent US20220155322A1, “USE OF NATRIURETIC PEPTIDES TO ASSESS AND TREAT ACUTE KIDNEY INJURY” (Mayo Foundation for Medical Education and Research, priority 2019, published 2022)
# Positions of bridges follow the written chain, without caps; N, C: chain ends. Residues, ends and D or L forms follow the SMILES beside them.
# What was measured:
# [1] = test system: AKI canine kidneys (renal cortex); test: Renal injury ex vivo analysis (H&E histology and TUNEL); assay type: in vivo; details: AKI canine kidney cortex, compared to vehicle
# Method: Histology and TUNEL Analysis: Fixed renal tissues were embedded in paraffin. For histology analysis, paraffin-embedded slides in vehicle (n=5) and CRRL269 (n=5) were stained with hematoxylin and eosin (H&E). A renal pathologist who was blinded to the study examined the H&E stained slides. Renal morphologic injuries such as tubular dilation and vacuolization were evaluated. Renal cortical apoptosis in vehicle (n=5) and CRRL269 (n=5) treated dogs were assessed using a TUNEL assay (Promega; Madison, Wis.) followed the protocol provided by the manufacturer. […] DAPI (Vectashield, Vector Laboratories; Burlingame, Calif.) was used to label the nucleus. TUNEL results were analyzed by confocal fluorescence microscopy (Nikon A50R; Melville, N.Y.).
# [2] = test system: human primary renal proximal tubular epithelial cells (HRPTC); test: Oil immersion induced hypoxia/reoxygenation (H/R) apoptosis, Caspase 3/7 IncuCyte live imaging; assay type: cell-based; parameters: apoptotic signals in HRPTC after H/R: dose or concentration left out as unconfirmed
# Method: Oil Immersion Induced Hypoxia/Reoxygenation in vitro: HRPTC (ScienCell Research Laboratories; Carlsbad, Calif.) were seeded in 96-well plates and cultured for 1 day until 70-80% confluence. Passages 3-5 were used for experiments. Caspase 3/7 green apoptosis assay agent (Essen BioScience; Ann Arbor, Mich.) was added to the culture medium for detection of apoptosis. Plates were then transferred to a time-lapsed, live imaging system IncuCyte (Essen BioScience) for apoptosis monitoring for a total of 24 hours. H/R in cells was mimicked with mineral oil (Sigma, St Louis, Mo.) immersion (Meldrum et al., J Surg Res, 99:288-293, 2001). Cells were immersed in oil for 2 hours, washed twice, and placed in fresh medium containing vehicle (H/R group) or drugs. ANP, BNP, and CRRL269 were used at concentrations of 10^−8, 10^−7, or 10^−6 M. PKG (an important cGMP binding protein) activating analogue 8-pCPT-cGMP (Sigma; St. Louis, Mo.), which is specific for PKG and has low affinity for phosphodiesterases, was used at concentrations of 10^−6, 10^−5, or 10^−4 M. Cells were treated with 10^−6-, 5×10^−6-, or 1.5×10^−5 M PKG inhibitor KT-5823 (Abcam; Cambridge, Mass.) for 30 minutes before 10^−6 M CRRL269 was added. Cells without H/R stimulation were labeled as the negative control (Neg Ctrl) group. Apoptosis signals (e.g., apoptosis object counts) were analyzed with software provided by IncuCyte.
# [3] = HRPTC, H/R, 10^−8, 10^−7 or 10^−6 M
structure (smiles),measurement,setting,value
CC[C@H](C)[C@@H]1NC(=O)[C@H](CCCNC(=N)N)NC(=O)[C@H](CC(=O)O)NC(=O)[C@H](CCSC)NC(=O)[C@H](CCCCN)NC(=O)[C@H](CCCNC(=N)N)NC(=O)CNC(=O)[C@H](Cc2ccccc2)NC(=O)[C@@H](NC(=O)[C@H](CO)NC(=O)[C@H](CO)NC(=O)[C@H](CCCNC(=N)N)NC(=O)[C@H](CCCNC(=N)N)NC(=O)[C@H](CC(C)C)NC(=O)[C@H](CO)NC(=O)[C@H](CCCNC(=N)N)NC(=O)[C@@H]2CCCN2C(=O)[C@H](C)NC(=O)[C@@H](N)[C@@H](C)O)CSSC[C@@H](C(=O)N[C@@H](CC(N)=O)C(=O)N[C@@H](CO)C(=O)N[C@@H](Cc2ccccc2)C(=O)N[C@@H](CCCNC(=N)N)C(=O)N[C@@H](Cc2ccc(O)cc2)C(=O)O)NC(=O)CNC(=O)[C@H](CC(C)C)NC(=O)CNC(=O)[C@H](CO)NC(=O)[C@H](CO)NC(=O)[C@H](CO)NC(=O)[C@H](CO)NC1=O [CRRL269] (H-TAPRSLRRSSCFGRKMDRISSSSGLGCNSFRY-OH; disulfide 11-27),renal cortex vacuolization (H&E staining),[1],less vacuolization compared to vehicle
same,renal cortical apoptosis (TUNEL assay),[1],reduced apoptosis
same,apoptotic signals in HRPTC after H/R,"[2]; CRRL269, compared to H/R group alone",significantly reduced
same,anti-apoptotic effect compared to ANP,[2]; [3],more robust anti-apototic effects compared to ANP
same,anti-apoptotic effect in comparison with BNP,[2]; [3],trend of superiority
